What was measured:
Assay type in all cases: cell-based
[1] = tested on: NCI-H28 human mesothelioma cell line; assay: Cell growth inhibition test (CellTiter-Glo), NCI-H28; conditions: NCI-H28 cells
Description: (§1) The cell growth for the compounds prepared in Examples was measured by CellTiter-Glo® Luminescent Cell Viability (Promega, Catalog #G7571) method using NCI-H226 (addexbio), NCI-H28 (Korea Cell Line Bank) and MSTO-211H (elabscience) human mesothelioma cell lines. This evaluation method is a method in which when luciferase enzyme is activated by ATP flowing out from living cells, it reacts with a luciferin substrate, and the enzyme activity at this time is measured to confirm cell viability.
(§2) Specifically, NCI-H226, NCI-H28, and MSTO-211H cells were prepared in 100 μL of cell culture medium (RPMI medium, 10% FBS, 1% P/S, 4.5 g/L D-Glucose, 2.383 g/L HEPES Buffer, L-Glutamine, 1.5 g/L Sodium Bicarbonate, 110 mg/L Sodium pyruvate) in a white clear bottom 96-well microplate. The prepared plate was incubated in a 5% CO2 incubator at 37° C. for 24 hours, and then the previously prepared compounds of Examples were finally treated at concentrations of 0.001, 0.01, 0.1, 1, and 10 μM, which was repeated three times for all treatment solutions. The plates treated with the compounds of Examples were incubated in a 5% CO2 incubator at 37° C. 100 μL/well of the substrate aqueous solution containing luciferin was added to a white clear-bottom 96 well microplate, thereby initiating an enzyme reaction. The reaction was performed at room temperature in the dark for 10 minutes, and the luminescence was measured using a Flexstation3 multi-mode microplate reader. In accordance with the instructions for the CellTiter-Glo™ Luminescednt Cell Viability, the luciferase enzyme activity, which represents the amount of ATP, was measured by a chemiluminescence method, and the inhibitory activity of the compounds according to the present invention was calculated. The results of each compound were analyzed using Microsoft Excel, and the IC50 values were calculated using GraphPad Prism software.

[2] = tested on: NCI-H226 human mesothelioma cell line; assay: Cell growth inhibition test (CellTiter-Glo), NCI-H226; conditions: NCI-H226 cells
Description: as §1, §2

[3] = tested on: MSTO-211H human mesothelioma cell line; assay: Cell growth inhibition test (CellTiter-Glo), MSTO-211H; conditions: MSTO-211H cells
Description: as §1, §2

[4] = tested on: transcription factor TEAD; assay: Activity inhibition test of transcription factor TEAD (ONE-Glo luciferase, TEAD reporter-MCF7 cell line); conditions: Homo sapiens; TEAD Reporter-MCF7 cells, 24 hours treatment, luciferase luminescence
Description: The transcription factor TEAD activity of the compounds prepared in Examples was measured by the ONE-Glo™ Luciferase assay (Promega, Catalog #E6110) method using the Hippo Pathway TEAD reporter-MCF7 recombinant cell line (BPS Bioscience, Catalog #60618).
Specifically, the TEAD Reporter-MCF7 cell line contains the firefly luciferase gene whose expression is regulated under the control of TEAD response elements in the MCF7, which is a human breast cancer cell line. In the cell line, a non-phosphorylated YAP/TAZ exists in the nucleus in a non-stressed condition, which continuously induces expression of the luciferase reporter.
TEAD Reporter-MCF7 cells were prepared in 100 μL of cell culture medium (MEM medium, 10% FBS, 1% P/S, 400 μg/mL Geneticin, 1% […], 1 mM NA pyruvate, 10 μg/mL Insulin) in a white clear bottom 96-well microplate. The prepared plate was incubated in a 5% CO2 incubator at 37° C. for 24 hours, and then the previously prepared compounds of Examples were finally treated at concentrations of 0.001, 0.01, 0.1, 1, and 10 µM, which were repeated three times for all treatment solutions. The plates treated with the compounds of Examples were incubated in a 5% CO2 incubator at 37° C. for 24 hours. 100 μL/well of the substrate aqueous solution containing luciferin was added to a white clear-bottom 96 well microplate, thereby initiating an enzyme reaction. The reaction was performed at room temperature for 5 minutes, and the luminescence (integration time 1000 ms) was measured using a Flexstation3 multi-mode microplate reader. In accordance with the instructions for the ONE-Glo™ Luciferase Assay, the luciferase enzyme activity, which represents the activity of the transcription factor TEAD, was measured by a chemiluminescence method, and the inhibitory activity of the compound according to the present invention was calculated. The results of each compound were analyzed using Microsoft Excel, and the IC50 values were calculated by GraphPad Prism software.

Compound	IC50 [1] [nM]	IC50 [2] [nM]	IC50 [3] [nM]	IC50 [4] [nM]
C=CC(=O)Nc1ccc(Nc2ncc(C(F)(F)F)cc2Cl)c(-c2ccn(C)n2)c1 [Example 53, N-(4-((3-chloro-5-(trifluoromethyl)pyridin-2-yl)amino)-3-(1-methyl-1H-pyrazol-3-yl)phenyl)acrylamide]	1670	62.8	8240	30.7
C=CC(=O)Nc1ccc(Nc2ccc(C(F)(F)F)cn2)c(-c2ccncn2)c1 [Example 15, N-(3-(pyrimidin-4-yl)-4-((5-(trifluoromethyl)pyridin-2-yl)amino)phenyl)acrylamide]	1570	71.8	552	42.8
C=CC(=O)Nc1ccc(Nc2cc(C3CC3)c(Cl)cn2)c(-c2ccccn2)c1 [Example 30, N-(4-((5-chloro-4-cyclopropylpyridin-2-yl)amino)-3-(pyridin-2-yl)phenyl)acrylamide]	8790	10	2210	31.6
C=CC(=O)Nc1ccc(Nc2ccc(C(F)(F)F)c(F)c2)c(-c2cn(C)cn2)c1 [Example 40, N-(4-((3-fluoro-4-(trifluoromethyl)phenyl)amino)-3-(1-methyl-1H-imidazol-4-yl)phenyl)acrylamide]	5540	6.6	1130	15
C=CC(=O)Nc1ccc(Nc2ncc(C(F)(F)F)cc2F)c(-c2cn(C)cn2)c1 [Example 36, N-(4-((3-fluoro-5-(trifluoromethyl)pyridin-2-yl)amino)-3-(1-methyl-1H-imidazol-4-yl)phenyl)acrylamide]	> 10000	12	> 10000	27
C=CC(=O)Nc1ccc(Nc2ccc(C(F)(F)F)cn2)c(-c2ccccn2)c1 [Example 4, N-(3-(pyridin-2-yl)-4-((5-(trifluoromethyl)pyridin-2-yl)amino)phenyl)acrylamide]	3310	6	130	17.8
C=CC(=O)Nc1cnc(Nc2ccc(C(F)(F)F)cn2)c(-c2ccccn2)c1 [Example 39, N-(2′-((5-(trifluoromethyl)pyridin-2-yl)amino)-[2,3′-bipyridin]-5′-yl)acrylamide]	3280	15.8	194	40.3
C=CC(=O)Nc1ccc(Nc2cc(C(F)(F)F)ccn2)c(-c2cn(C)cn2)c1 [Example 31, N-(3-(1-methyl-1H-imidazol-4-yl)-4-((4-(trifluoromethyl)pyridin-2-yl)amino)phenyl)acrylamide]	3110		> 10000	314
C=CC(=O)Nc1ccc(Nc2ccc(C(F)(F)F)cn2)c(-c2cn(C)cn2)c1 [Example 6, N-(3-(1-methyl-1H-imidazol-4-yl)-4-((5-(trifluoromethyl)pyridin-2-yl)amino)phenyl)acrylamide]	1380	3	221	10
C=CC(=O)Nc1ccc(Nc2cc(F)c(C(F)(F)F)c(F)c2)c(-c2cn(C)cn2)c1 [Example 46, N-(4-((3,5-difluoro-4-(trifluoromethyl)phenyl)amino)-3-(1-methyl-1H-imidazol-4-yl)phenyl)acrylamide]		13.1		28
C=CC(=O)Nc1ccc(Nc2cc(Cl)c(Cl)cn2)c(-c2ccn(C)n2)c1 [Example 55, N-(4-((4,5-dichloropyridin-2-yl)amino)-3-(1-methyl-1H-pyrazol-3-yl)phenyl)acrylamide]	1250	65	167	12.8
C=CC(=O)Nc1ccc(NC2CCCCC2)c(-c2ccccn2)c1 [Example 2, N-(4-(cyclohexylamino)-3-(pyridin-2-yl)phenyl)acrylamide]		46		12.3
C=CC(=O)Nc1ccc(Nc2ccc(C(F)(F)F)cc2)c(-c2cn(C)cn2)c1 [Example 35, N-(3-(1-methyl-1H-imidazol-4-yl)-4-((4-(trifluoromethyl)phenyl)amino)phenyl)acrylamide]	3020	3	105	5.3
C=CC(=O)Nc1ccc(Nc2ccc(C(F)(F)F)c(F)c2F)c(-c2cn(C)cn2)c1 [Example 44, N-(4-((2,3-difluoro-4-(trifluoromethyl)phenyl)amino)-3-(1-methyl-1H-imidazol-4-yl)phenyl)acrylamide]		3.9		8
C=CC(=O)Nc1ccc(Nc2ncc(C(F)(F)F)cc2F)c(-c2ccccn2)c1 [Example 21, N-(4-((3-fluoro-5-(trifluoromethyl)pyridin-2-yl)amino)-3-(pyridin-2-yl)phenyl)acrylamide]	2680	9	3270	11.5
C=CC(=O)Nc1ccc(Nc2cc(Cl)c(C(F)(F)F)cn2)c(-c2ccn(C)n2)c1 [Example 37, N-(4-((4-chloro-5-(trifluoromethyl)pyridin-2-yl)amino)-3-(1-methyl-1H-pyrazol-3-yl)phenyl)acrylamide]	1100	13	3750	4.5
C=CC(=O)Nc1ccc(Nc2ccc(Br)c(C)n2)c(-c2cn(C)cn2)c1 [Example 48, N-(4-((5-bromo-6-methylpyridin-2-yl)amino)-3-(1-methyl-1H-imidazol-4-yl)phenyl)acrylamide]		10.3		45
C=CC(=O)Nc1ccc(NC2CCCCC2)c(-c2ccccc2)c1 [Example 1, N-(6-(cyclohexylamino)-[1,1′-biphenyl]-3-yl)acrylamide]		132		42
C=CC(=O)Nc1cnc(Nc2ccc(C(F)(F)F)cc2)c(-c2cn(C)cn2)c1 [Example 41, N-(5-(1-methyl-1H-imidazol-4-yl)-6-((4-(trifluoromethyl)phenyl)amino)pyridin-3-yl)acrylamide]		6		10
C=CS(=O)(=O)Nc1cnc(NCCc2nccs2)c(/C=C/c2ccc(F)cc2)c1 [Example 28]		875		28.6
C=CC(=O)Nc1ccc(Nc2ncc(C(F)(F)F)cc2F)c(-c2ccn(C)n2)c1 [Example 56, N-(4-((3-fluoro-5-(trifluoromethyl)pyridin-2-yl)amino)-3-(1-methyl-1H-pyrazol-3-yl)phenyl)acrylamide]		11		5
C=CC(=O)Nc1ccc(NCc2ccc(F)cc2)c(-c2ccccn2)c1 [Example 12, N-(4-((4-fluorobenzyl)amino)-3-(pyridin-2-yl)phenyl)acrylamide]		1250		2.4
C=CC(=O)Nc1ccc(N[C@H]2CC[C@@H](C(F)(F)F)CC2)c(-c2ccccn2)c1 [Example 3, N-(3-(pyridin-2-yl)-4-((cis-4-(trifluoromethyl)cyclohexyl)amino)phenyl)acrylamide]		> 10000		3.7
C=CC(=O)Nc1cc(F)c(Nc2ccc(C(F)(F)F)cn2)c(-c2ccccn2)c1 [Example 29, N-(3-fluoro-5-(pyridin-2-yl)-4-((5-(trifluoromethyl)pyridin-2-yl)amino)phenyl)acrylamide]	2550	20	196	21.5
C=CC(=O)Nc1ccc(Nc2ccc(Cl)cc2)c(-c2cn(C)cn2)c1 [Example 47, N-(4-((4-chlorophenyl)amino)-3-(1-methyl-1H-imidazol-4-yl)phenyl)acrylamide]		3.3		3.9

Reference: patent US20250074889A1, “Novel Aminobenzene Derivative Having Cancer Cell Growth Inhibitory Effect, and Preventive or Therapeutic Pharmaceutical Composition Containing Same as Active Ingredient” (Daewoong Pharmaceutical Co., Ltd., priority 2022, published 2025)
